Like-named read-outs stand apart in the source and are kept apart here.
Tests used:
Type in all cases: in vivo
Sphaerotheca fuliginea = assay: Sphaerotheca test (cucumbers)/protective; settings: Table C; for pest or weed control at 5 ppm: 5 ppm a.i.
Description: (§1) Solvent: 24.5 parts by weight of acetone
(§2) • 24.5 parts by weight of dimethylacetamide Emulsifier: 1 part by weight of alkylaryl polyglycol ether
(§3) To produce a suitable preparation of active compound, 1 part by weight of active compound is mixed with the stated amounts of solvent and emulsifier, and the concentrate is diluted with water to the desired concentration. To test for protect activity, young plants are sprayed with the preparation of active compound at the stated rate of application. After the spray coating has dried on, the plants are inoculated with an aqueous spore suspension of Sphaerotheca fuliginea. The plants are then placed in a greenhouse at approximately 23° C. and a relative atmospheric humidity of approximately 70%. The test is evaluated 7 days after the inoculation. 0% means an efficacy which corresponds to that of the control, while an efficacy of 100% means that no disease is observed.

Phytophthora infestans = assay: whole plant or invertebrate; settings: for Efficacy in % found: Table A
Venturia inaequalis = assay: Venturia test (apples)/protective; settings: Table D, test 1
Description: as §1, §2
as §3, with “protective” for “protect”, “conidia” for “spore”, “the causal agent of apple scab (Venturia inaequalis) and then remain for 1 day in an incubation cabinet at approximately 20° C. and a relative atmospheric humidity of 100%.” for “Sphaerotheca fuliginea.”, “21°” for “23°”, “90%.” for “70%.”, “10” for “7”

Botrytis cinerea = assay: Botrytis test (beans)/protective; settings: Table F
Description: as §1, §2
To produce a suitable preparation of active compound, 1 part by weight of active compound is mixed with the stated amounts of solvent and emulsifier, and the concentrate is diluted with water to the desired concentration. To test for protective activity, young plants are sprayed with the preparation of active compound. After the spray coating has dried on, 2 small pieces of agar covered with growth of Botrytis cinerea are placed on each leaf. The inoculated plants are placed in a darkened chamber at 20° C. and a relative atmospheric humidity of 100%. 2 days after the inoculation, the size of the lesions on the leaves is evaluated. 0% means an efficacy which corresponds to that of the control, while an efficacy of 100% means that no disease is observed.

Alternaria solani = assay: Alternaria test (tomatoes)/protective; settings: Table E; for pest or weed control at 12.5 ppm: 12.5 ppm a.i.
Description: as §1, §2
To produce a suitable preparation of active compound, 1 part by weight of active compound is mixed with the stated amounts of solvent and emulsifier, and the concentrate is diluted with water to the desired concentration. To test for protective activity, young plants are sprayed with the preparation of active compound at the stated rate of application. After the spray coating has dried on, the plants are inoculated with an aqueous spore suspension of Alternaria solani. The plants are then placed in an incubation cabinet at approximately 20° C. and a relative atmospheric humidity of 100%. The test is evaluated 3 days after the inoculation. 0% means an efficacy which corresponds to that of the control while an efficacy of 100% means that no disease is observed.

[1] = Podosphaera fuliginea, 168 h, test 4, read-out: Efficacy in % found
[2] = Botrytis cinerea, 48 h, test 1, 25 ppm a.i., read-out: Efficacy in % found
[3] = Botrytis cinerea, 48 h, test 2, 50 ppm a.i., read-out: Efficacy in % found
[4] = Alternaria solani, 72 h, test 1, read-out: Efficacy in % found

## CC(C)(C)C(=O)C(Oc1ccc(Cl)cc1)n1cncn1 (centres unmarked) [(1.50), triadimefon]
Sphaerotheca fuliginea; [1]
  pest or weed control at 5 ppm: 19%

## Fc1ccc(Oc2ccnc3cc(Cl)cc(Cl)c23)cc1 [(13.3), quinoxyfen]
Sphaerotheca fuliginea; Podosphaera fuliginea, 168 h, test 3, read-out: Efficacy in % found
  pest or weed control at 5 ppm: 37%

## [Cu+2].[OH-].[OH-] [(5.16), copper hydroxide]
Phytophthora infestans; test 6, 25 ppm a.i.
  Efficacy in % found: 43%

## CCCCCCCCc1c(CC)nc2ncnn2c1N [(15.1), ametoctradin]
Phytophthora infestans; test 2, 2.5 ppm a.i.
  Efficacy in % found: 73%

## Cn1cc(C(=O)Nc2ccccc2-c2ccccc2C(F)(F)F)c(C(F)(F)F)n1 [(2.26), 1-methyl-3-(trifluoromethyl)-N-[2′-(trifluoromethyl)biphenyl-2-yl]-1H-pyrazole-4-carboxamide]
Venturia inaequalis; 1 ppm a.i.
  Efficacy in % found: 54%
Botrytis cinerea; [2]
  pest or weed control at 25 ppm: 89%

## CC(C)(C)C(O)C(Oc1ccc(-c2ccccc2)cc1)n1cncn1 (centres unmarked) [(1.3), bitertanol]
Sphaerotheca fuliginea; [1]
  pest or weed control at 5 ppm: 71%

## COc1ccc(C(=CC(=O)N2CCOCC2)c2ccc(Cl)cc2)cc1OC [(9.2), dimethomorph]
Phytophthora infestans; Phytophthora infestans, 72 h, read-out: Efficacy in % found, Table A, test 2, 0.5 ppm a.i.
  pest or weed control at 0.5 ppm: 28%

## Cc1cc(C)nc(Nc2ccccc2)n1 [(7.7), pyrimethanil]
Botrytis cinerea; [3]
  pest or weed control at 50 ppm: 0%

## CCCCNC(=O)n1c(NC(=O)OC)nc2ccccc21 [(4.1), benomyl]
Botrytis cinerea; Botrytis cinerea, 48 h, test 3, 2.5 ppm a.i., read-out: Efficacy in % found
  pest or weed control at 2.5 ppm: 8%

## CC1COC(Cn2cncn2)(c2ccc(Oc3ccc(Cl)cc3)cc2Cl)O1 (centres unmarked) [(1.7), difenoconazole]
Sphaerotheca fuliginea; [1]
  pest or weed control at 5 ppm: 38%

## COC(=O)NC(=S)Nc1ccccc1NC(=S)NC(=O)OC [(4.8), thiophanate-methyl]
Phytophthora infestans; Phytophthora infestans, 72 h, read-out: Efficacy in % found, Table A, test 6, 250 ppm a.i.
  pest or weed control at 250 ppm: 29%
Botrytis cinerea; Botrytis cinerea, 48 h, test 3, 12.5 ppm a.i., read-out: Efficacy in % found
  pest or weed control at 12.5 ppm: 84%

## propineb [(5.23)]
Phytophthora infestans; test 6, 50 ppm a.i.
  Efficacy in % found: 26%

## CCCN(CC)CC1COC2(CCC(C(C)(C)C)CC2)O1 (centres unmarked) [(1.46), spiroxamine]
Sphaerotheca fuliginea; Podosphaera fuliginea, 168 h, test 3, 100 ppm a.i., read-out: Efficacy in % found
  pest or weed control at 100 ppm: 10%

## CCCCCOC(=O)Nc1cccc(CON=C(c2ccccc2)c2nnnn2C)n1 [(15.66), pentyl {6-[({[(1-methyl-1H-tetrazol-5-yl)(phenyl)methylidene]amino}oxy)-methyl]pyridin-2-yl}carbamate]
Phytophthora infestans; Phytophthora infestans, 72 h, read-out: Efficacy in % found, Table A, test 5, 0.5 ppm a.i.
  pest or weed control at 0.5 ppm: 30%

## CO/C=C(/C(=O)OC)c1ccccc1Oc1cc(Oc2ccccc2C#N)ncn1 [(3.2), azoxystrobin]
Alternaria solani; test 1, 0.5 ppm a.i.
  Efficacy in % found: 40%
Phytophthora infestans; test 1, 1 ppm a.i.
  Efficacy in % found: 23%
Botrytis cinerea; test 1, 25 ppm a.i.
  Efficacy in % found: 0%

## N#Cc1c[nH]cc1-c1cccc(Cl)c1Cl [(13.1), fenpiclonil]
Botrytis cinerea; Botrytis cinerea, 48 h, test 2, 10 ppm a.i., read-out: Efficacy in % found
  pest or weed control at 10 ppm: 0%

## N#Cc1ccccc1NC(=O)c1snc(Cl)c1Cl [(15.22), isotianil]
Botrytis cinerea; test 2, 50 ppm a.i.
  Efficacy in % found: 0%

## COC(=O)CC(NC(=O)[C@@H](NC(=O)OC(C)C)C(C)C)c1ccc(Cl)cc1 (some centres unmarked) [(9.10), valifenalate]
Phytophthora infestans; test 2, 0.5 ppm a.i.
  Efficacy in % found: 58%

## COC(=O)C(C)N(C(=O)Cc1ccccc1)c1c(C)cccc1C (centres unmarked) [(12.1), benalaxyl]
Phytophthora infestans; Phytophthora infestans, 72 h, read-out: Efficacy in % found, Table A, test 4, 1 ppm a.i.
  pest or weed control at 1 ppm: 26%

## metiram [(5.21)]
Phytophthora infestans; test 3, 50 ppm a.i.
  Efficacy in % found: 17%

## COc1cc(C)c(C(=O)c2c(OC)ccc(Br)c2C)c(OC)c1OC [(15.25), metrafenone]
Sphaerotheca fuliginea; Podosphaera fuliginea, 168 h, test 2, 10 ppm a.i., read-out: Efficacy in % found
  pest or weed control at 10 ppm: 21%

## phosphorous acid and its salts [(15.62)]
Phytophthora infestans; test 6, 500 ppm a.i.
  Efficacy in % found: 54%

## N#Cc1sc2c(=O)c3ccccc3c(=O)c=2sc1C#N [(5.6), dithianon]
Phytophthora infestans; Phytophthora infestans, 72 h, read-out: Efficacy in % found, Table A, test 6, 25 ppm a.i.
  pest or weed control at 25 ppm: 54%

## CC(C)[C@H](NC(=O)O)C(=O)N[C@H](C)c1nc2ccc(F)cc2s1 [(9.1), benthiavalicarb]
Phytophthora infestans; test 1, 0.25 ppm a.i.
  Efficacy in % found: 12%

## Cc1cc(C(F)(F)F)nn1CC(=O)N1CCC(c2nc(C3=NO[C@@H](c4c(F)cccc4F)C3)cs2)CC1 [(15.88), 1-(4-{4-[(5R)-5-(2,6-difluorophenyl)-4,5-dihydro-1,2-oxazol-3-yl]-1,3-thiazol-2-yl}piperidin-1-yl)-2-[5-methyl-3-(trifluoromethyl)-1H-pyrazol-1-yl]ethanone]
Phytophthora infestans; Phytophthora infestans, 72 h, read-out: Efficacy in % found, Table A, test 5, 0.025 ppm a.i.
  pest or weed control at 0.025 ppm: 50%

## CCOc1ccc(NC(=O)OC(C)C)cc1OCC [(4.3), diethofencarb]
Botrytis cinerea; Botrytis cinerea, 48 h, test 3, 50 ppm a.i., read-out: Efficacy in % found
  pest or weed control at 50 ppm: 29%

## O=C(NCc1ncc(C(F)(F)F)cc1Cl)c1c(Cl)cccc1Cl [(15.17), fluopicolide]
Phytophthora infestans; test 1, 1 ppm a.i.
  Efficacy in % found: 0%

## O=C1c2ccccc2C(=O)N1SC(Cl)(Cl)Cl [(5.9), folpet]
Phytophthora infestans; Phytophthora infestans, 72 h, read-out: Efficacy in % found, Table A, test 3, 50 ppm a.i.
  pest or weed control at 50 ppm: 32%

## O=C(Nc1ccccc1)N(Cc1ccc(Cl)cc1)C1CCCC1 [(4.6), pencycuron]
Botrytis cinerea; [3]
  pest or weed control at 50 ppm: 0%

## Fc1ccc([C@]2(Cn3cncn3)O[C@H]2c2ccccc2Cl)cc1 (racemic) [(1.12), epoxiconazole]
Sphaerotheca fuliginea; Podosphaera fuliginea, 168 h, test 1, 0.5 ppm a.i., read-out: Efficacy in % found
  pest or weed control at 0.5 ppm: 30%
Botrytis cinerea; [2]
  pest or weed control at 25 ppm: 49%

## COc1ccccc1N1CCS/C1=C(/C#N)Sc1cc(C(F)(F)F)ccc1F [(15.57), flutianil]
Sphaerotheca fuliginea; test 2, 0.5 ppm a.i.
  Efficacy in % found: 48%

## CCO[PH](=O)O [(15.20), fosetyl-Al]
Phytophthora infestans; test 7, 62.5 ppm a.i.
  Efficacy in % found: 53%

## COC(=O)[C@@H](C)N(C(=O)Cc1ccccc1)c1c(C)cccc1C [(12.2), benalaxyl-M (kiralaxyl)]
Phytophthora infestans; test 4, 1 ppm a.i.
  Efficacy in % found: 19%

## Cc1ccc(C(C)NC(=O)[C@@H](NC(=O)OC(C)C)C(C)C)cc1 (some centres unmarked) [(9.4), iprovalicarb]
Phytophthora infestans; test 7, 1.25 ppm a.i.
  Efficacy in % found: 42%

## CC1(C(=O)Nc2ccc(O)c(Cl)c2Cl)CCCCC1 [(1.16), fenhexamid]
Venturia inaequalis; 12.5 ppm a.i.
  Efficacy in % found: 0%
Alternaria solani; [4]
  pest or weed control at 12.5 ppm: 0%

## O=C1C2CC=CCC2C(=O)N1SC(Cl)(Cl)Cl (centres unmarked) [(5.3), captan]
Phytophthora infestans; Phytophthora infestans, 72 h, read-out: Efficacy in % found, Table A, test 6, 50 ppm a.i.
  pest or weed control at 50 ppm: 60%

## N#Cc1c(Cl)c(Cl)c(Cl)c(C#N)c1Cl [(5.4), chlorothalonil]
Phytophthora infestans; Phytophthora infestans, 72 h, read-out: Efficacy in % found, Table A, test 5, 2.5 ppm a.i.
  pest or weed control at 2.5 ppm: 50%

## mancozeb [(5.19)]
Phytophthora infestans; test 3, 50 ppm a.i.
  Efficacy in % found: 53%

## CC(C1CC1)C(O)(Cn1cncn1)c1ccc(Cl)cc1 (centres unmarked) [(1.5), cyproconazole]
Alternaria solani; Alternaria solani, 72 h, test 2, 0.5 ppm a.i., read-out: Efficacy in % found
  pest or weed control at 0.5 ppm: 0%

## CC(C)NC(=O)N1CC(=O)N(c2cc(Cl)cc(Cl)c2)C1=O [(10.7), iprodione]
Alternaria solani; [4]
  pest or weed control at 12.5 ppm: 35%
Botrytis cinerea; [2]
  pest or weed control at 25 ppm: 0%

## CSC1=N[C@@](C)(c2ccccc2)C(=O)N1Nc1ccccc1 [(3.7), fenamidone]
Phytophthora infestans; Phytophthora infestans, 72 h, read-out: Efficacy in % found, Table A, test 1, 1 ppm a.i.
  pest or weed control at 1 ppm: 62%

## metalaxyl-M (mefenoxam) [(12.10)]
Phytophthora infestans; test 7, 1.25 ppm a.i.
  Efficacy in % found: 13%

## N#Cc1c[nH]cc1-c1cccc2c1OC(F)(F)O2 [(13.2), fludioxonil]
Botrytis cinerea; Botrytis cinerea, 48 h, test 2, 5 ppm a.i., read-out: Efficacy in % found
  pest or weed control at 5 ppm: 84%

From patent publication US9006139B2, “Active compound combinations” (Bayer Intellectual Property GmbH, priority 2009, dated 2015)
